Consider seven compounds from ChEMBL document CHEMBL6134805, “Dual-acting β-Aminothiochromones: Design, synthesis, and evaluation as antimicrobial and anti-angiogenic agents” (2025).

By MIC is commonly meant the lowest concentration found to suppress growth. By MBC is commonly meant the lowest tested concentration that kills the bacteria rather than only halting them. Usually MFC stands for the smallest concentration meeting the test's criterion for killing the fungus.

Values after ≈ are worked out from the molar mass of the structure shown. Active and inactive are the calls of the source.

Experiment [1] relates to Bacillus subtilis. The experiment in a line: Antimicrobial activity against Bacillus subtilis MTCC 13343 assessed as reduction in bacterial growth by serial dilution method. The class given is functional.
For experiment [2], the system named is Bacillus subtilis. The experiment in a line: Bactericidal activity against Bacillus subtilis MTCC 13343 by serial dilution method. The class given is functional.
Experiment [3] concerns Staphylococcus aureus. The experiment in a line: Antimicrobial activity against Staphylococcus aureus ATCC 6538 assessed as reduction in bacterial growth by serial dilution method. The class given is functional.
In experiment [4] the test system is Staphylococcus aureus. The experiment in a line: Bactericidal activity against Staphylococcus aureus ATCC 6538 by serial dilution method. The class given is functional.
Experiment [5] deals with Candida albicans. The experiment in a line: Antimicrobial activity against Candida albicans ATCC 24433 assessed as reduction in fungal growth by serial dilution method. The class given is functional.
Experiment [6] deals with Candida albicans. The experiment in a line: Fungicidal activity against Candida albicans ATCC 24433 by serial dilution method. The class given is functional.
For a further experiment, the system named is Nakaseomyces glabratus. The experiment can be described thus: Antimicrobial activity against Candida glabrata MTCC 3019 assessed as reduction in fungal growth by serial dilution method. The class given is functional.
The test system of experiment [7] is Escherichia coli. The experiment can be described thus: Antimicrobial activity against Escherichia coli ATCC 10799 assessed as reduction in bacterial growth by serial dilution method. The class given is functional.
For experiment [8], the system named is Pseudomonas aeruginosa. The experiment can be described thus: Antimicrobial activity against Pseudomonas aeruginosa MTCC 11778 assessed as reduction in bacterial growth by serial dilution method. The class given is functional.
Experiment [9] relates to Pseudomonas aeruginosa. The experiment in a line: Bactericidal activity against Pseudomonas aeruginosa MTCC 11778 by serial dilution method. The class given is functional.
The subject of experiment [10] is Bacillus subtilis. The experiment in a line: Selectivity ratio of MBC for bactericidal activity against Bacillus subtilis MTCC 13343 to MIC for antimicrobial activity against Bacillus subtilis MTCC 13343. The class given is functional.
Experiment [11] deals with HepG2. The experiment in a line: Antiangiogenic activity against human HepG2 cells assessed as reduction in area of wound coverage at 12.5 ug/mL incubated for 24 hrs by scratch wound healing assay. The class given is functional. The note with it: dose 12.5 µg/ml.
Experiment [12] relates to HepG2. The experiment can be described thus: Antiangiogenic activity against human HepG2 cells assessed as reduction in area of wound coverage at 12.5 ug/mL incubated for 48 hrs by scratch wound healing assay. The class given is functional. The note with it: dose 12.5 µg/ml.
Experiment [13] concerns HepG2. The experiment can be described thus: Antiangiogenic activity against human HepG2 cells assessed as reduction in area of wound coverage at 12.5 ug/mL incubated for 72 hrs by scratch wound healing assay. The note with it: dose 12.5 µg/ml. The class given is functional.
Experiment [14] has as its system HepG2. The experiment in a line: Antiangiogenic activity against human HepG2 cells assessed as reduction in area of wound coverage at 12.5 ug/mL incubated for 72 hrs by scratch wound healing assay relative to control. The class given is functional. On the set-up: scale not given: the % may be the effect or the level left. The note with it: dose 12.5 µg/ml.
The test system of experiment [15] is HepG2. The experiment can be described thus: Antiangiogenic activity against human HepG2 cells assessed as reduction in area of wound coverage at 6.25 ug/mL incubated for 24 to 72 hrs by scratch wound healing assay. The class given is functional, cell-based. The note with it: dose 6.25 µg/ml, time 24-72 hrs.
For experiment [16], the system named is HepG2. The experiment in a line: Antiangiogenic activity against human HepG2 cells assessed as reduction in area of wound coverage at 6.25 to 12.5 ug/mL by scratch wound healing assay. The class given is functional, cell-based. The note with it: dose 6.25-12.5 µg/ml, time 24-72 hrs.
Experiment [17] deals with HepG2. The experiment can be described thus: Antiangiogenic activity against human HepG2 cells assessed as reduction in area of wound coverage incubated for 24 to 72 hrs by scratch wound healing assay. The class given is functional, cell-based. The note with it: dose 6.25-12.5 µg/ml, time 24-72 hrs.
Experiment [18] has as its system HepG2. The experiment can be described thus: Cytotoxicity against human HepG2 cells assessed as reduction in cell viability at 25 to 100 ug/mL by MTT assay. The note with it: dose 25-100 µg/ml. The class given is functional, cell-based.
In experiment [19] the test system is HepG2. The experiment can be described thus: Cytotoxicity against human HepG2 cells assessed as reduction in cell viability at 100 ug/mL by MTT assay relative to control. The class given is functional. The note with it: dose 100 µg/ml. A general note: Tetrazolium assays rely on reduction of a dye to a coloured formazan, in cell work by metabolically active cells.

Experiment [20] concerns Escherichia coli. The experiment in a line: Bactericidal activity against Escherichia coli ATCC 10799 by serial dilution method. The class given is functional.
Experiment [21] relates to Escherichia coli. The experiment can be described thus: Selectivity ratio of MBC for bactericidal activity against Escherichia coli ATCC 10799 to MIC for antimicrobial activity against Escherichia coli ATCC 10799. The class given is functional.
Experiment [22] concerns HepG2. The experiment can be described thus: Antiangiogenic activity against human HepG2 cells assessed as reduction in area of wound coverage at 12.5 ug/mL incubated for 24 to 72 hrs by scratch wound healing assay. The note with it: dose 12.5 µg/ml, time 24-72 hrs. The class given is functional, cell-based.
The test system of experiment [23] is HepG2. The experiment can be described thus: Cytotoxicity against human HepG2 cells assessed as reduction in cell viability up to 100 ug/mL by MTT assay relative to control. The class given is functional. The note with it: dose <= 100 µg/ml; up to 100 µg/mL.

As to `CC1(C)S[C@@H]2[C@H](NC(=O)[C@H](N)c3ccccc3)C(=O)N2[C@H]1C(=O)O` [AMPICILLIN], the MIC in the experiment with Bacillus subtilis [1] came to 8 µg/mL (≈ 22.9 µM); with Staphylococcus aureus [3], 4 µg/mL (≈ 11.4 µM). Further, the figures for the MBC in the experiment on Bacillus subtilis [2] and with Staphylococcus aureus [4] were 32 µg/mL (≈ 91.6 µM) and 64 µg/mL (≈ 183 µM), respectively.

On to `OC(Cn1cncn1)(Cn1cncn1)c1ccc(F)cc1F` [FLUCONAZOLE], for which the MIC in the experiment on Candida albicans [5] turned out to be 8 µg/mL (≈ 26.1 µM); with Nakaseomyces glabratus it was 16 µg/mL (≈ 52.2 µM). This compound also had an MFC with Candida albicans [6] of 64 µg/mL (≈ 209 µM).

`O=c1c(C(NCc2ccccc2)c2ccccc2)csc2ccc(Cl)cc12` (stereo not drawn): the MIC in the experiment on Escherichia coli [7] came out at 16 µg/mL (≈ 40.8 µM); with Pseudomonas aeruginosa [8] it was 8 µg/mL (≈ 20.4 µM); with Bacillus subtilis [1] it was 4 µg/mL (≈ 10.2 µM); with Staphylococcus aureus [3] it was 16 µg/mL (≈ 40.8 µM); with Candida albicans [5], 16 µg/mL (≈ 40.8 µM); in the experiment with Nakaseomyces glabratus, 8 µg/mL (≈ 20.4 µM). The MBC against Pseudomonas aeruginosa [9] and in the experiment on Bacillus subtilis [2] was 64 µg/mL (≈ 163 µM) in each case. Moreover, the Selectivity ratio in the experiment on Bacillus subtilis [10] turned out to be 16. The Activity with HepG2 [11] was 768000 µm²; with HepG2 [12], 683000 µm²; in the experiment on HepG2 [13], 692000 µm²; in the experiment with HepG2 [14] it was 18.24%; in the experiment with HepG2 [16], “Time-dependent-effect”; in the experiment with HepG2 [17] it was “Dose-dependent-effect”. In the experiment with HepG2 [19], the Activity was 80%. Moreover, the result in the experiment with HepG2 [15] and in the experiment on HepG2 [18] was Active.

For the compound `O=c1c(C(NCc2ccc(OC(F)(F)F)cc2)c2ccccc2)csc2ccccc12` (stereo not drawn), the MIC with Escherichia coli [7] was determined as 8 µg/mL (≈ 18.1 µM); in the experiment on Pseudomonas aeruginosa [8], 16 µg/mL (≈ 36.2 µM); in the experiment with Bacillus subtilis [1], 16 µg/mL (≈ 36.2 µM); in the experiment on Staphylococcus aureus [3] it was 8 µg/mL (≈ 18.1 µM); with Candida albicans [5] it was 16 µg/mL (≈ 36.2 µM); in the experiment on Nakaseomyces glabratus, 16 µg/mL (≈ 36.2 µM). Moreover, the MBC in the experiment on Escherichia coli [20] is 32 µg/mL (≈ 72.5 µM); in the experiment with Pseudomonas aeruginosa [9], 64 µg/mL (≈ 145 µM); in the experiment with Bacillus subtilis [2], 64 µg/mL (≈ 145 µM); with Staphylococcus aureus [4], 32 µg/mL (≈ 72.5 µM). Besides, the values for the Selectivity ratio in the experiment on Bacillus subtilis [10] and in the experiment with Escherichia coli [21] were 16 and 4, respectively. In addition, the Activity with HepG2 [14] was 31.19%; in the experiment with HepG2 [16], “Time-dependent-effect”; in the experiment with HepG2 [17], “Dose-dependent-effect”; in the experiment on HepG2 [23], greater than 70%. Also, the outcome in the experiment with HepG2 [22], in the experiment on HepG2 [15] and with HepG2 [18] was Active.

Take `O=C(O)c1cn(C2CC2)c2cc(N3CCNCC3)c(F)cc2c1=O` [CIPROFLOXACIN]: the figures for the MBC against Escherichia coli [20] and in the experiment on Pseudomonas aeruginosa [9] were 64 µg/mL (≈ 193 µM) and 32 µg/mL (≈ 96.6 µM), respectively. Further, the MIC in the experiment with Pseudomonas aeruginosa [8] is 4 µg/mL (≈ 12.1 µM).

Consider `O=c1c(C(NCc2ccc(Cl)cc2)c2ccccc2)csc2ccccc12` (stereo not drawn), for which the MIC in the experiment on Escherichia coli [7] amounted to 32 µg/mL (≈ 81.6 µM); with Pseudomonas aeruginosa [8] it was 32 µg/mL (≈ 81.6 µM); with Bacillus subtilis [1] it was 64 µg/mL (≈ 163 µM); in the experiment on Staphylococcus aureus [3], 64 µg/mL (≈ 163 µM); with Candida albicans [5] it was 32 µg/mL (≈ 81.6 µM); in the experiment on Nakaseomyces glabratus, 32 µg/mL (≈ 81.6 µM). In addition, the Activity was 25.83% with HepG2 [14], “Time-dependent-effect” in the experiment on HepG2 [16], “Dose-dependent-effect” in the experiment with HepG2 [17] and less than 70% in the experiment with HepG2 [23]. In addition, the result in the experiment on HepG2 [22], with HepG2 [15] and with HepG2 [18] was Active.

With `O=c1c(C(NCc2cccc(C(F)(F)F)c2)c2ccccc2)csc2ccccc12` (stereo not drawn), the MIC in the experiment with Escherichia coli [7] was 32 µg/mL (≈ 75.2 µM); in the experiment with Pseudomonas aeruginosa [8], 32 µg/mL (≈ 75.2 µM); with Bacillus subtilis [1], 64 µg/mL (≈ 150 µM); in the experiment on Staphylococcus aureus [3] it was 64 µg/mL (≈ 150 µM); in the experiment on Candida albicans [5] it was 32 µg/mL (≈ 75.2 µM); in the experiment with Nakaseomyces glabratus, 64 µg/mL (≈ 150 µM). The Activity in the experiment with HepG2 [14] is 28.93%; in the experiment on HepG2 [16], “Time-dependent-effect”; in the experiment on HepG2 [17], “Dose-dependent-effect”; in the experiment with HepG2 [23], less than 70%. Moreover, the outcome in the experiment on HepG2 [22], in the experiment with HepG2 [15] and in the experiment on HepG2 [18] was Active.
